Test results: publication PMC7145288, “New Peptide-Based Pharmacophore Activates 20S Proteasome” (Molecules, 2020)

Key:
[1] = test system: 20S core proteasome α face pockets; assay: Competition with Rpt C-terminal tail peptides for α face pockets (ChT-L activity); type: biochemical, human; conditions: Rpt peptide 1 μM added before TAT peptide; for Competition with Rpt tail peptides (in words, from radar plot scores): Rpt2 α3/α4, Rpt3 α1/α2, Rpt5 α5/α6, Rpt6 α2/α3 pocket, three to six experiments; for Enhanced (synergistic) activation with Rpt tail peptides (in words): Rpt5 or Rpt6 tails
From the text: As mentioned above, the binding pockets on the α face accept “anchors” from natural protein ligands of the 20S core. […] The 10-residue Rpt-derived C-terminal “tail” peptides (“Rpt peptides”) can be used as competitors with the Rpt subunits or with small allosteric ligands. Importantly, the Rpt peptides interject between the subunits with their C-termini, whereas TAT peptides, according to the modeling, use their N-termini for this purpose. To test the specificity of interactions between TAT compounds and the α face, we performed competition experiments. The 20S core was challenged with selected TAT compounds after treatment with Rpt peptides. We selected peptides of Rpt2 ([…]), Rpt3 ([…]), Rpt5 ([…]) and Rpt6 […]) subunits, docking in α3/α4, α1/α2, α5/α6 and α2/α3 pockets, respectively. Tails of Rpt2, 3, and 5 display the canonical HbYX motif, whereas the LeuTrpLys C-terminus of Rpt6 may be considered “pseudo-HbYX”, with a bulky Trp replacing Tyr. Results of the competition experiments are presented as radar plots in Figure 7. […] This pocket also emerged as the major binding site for (1) and (8). However, these compounds likely weakly competed with the Rpt2 tail for binding to the α3/α4 pocket as well. The α3/α4 pocket seemed to be favored by (6). […] These complex patterns point at the importance of allosteric effects between the α face ligands, the gate and the catalytic chamber.
Figure 7 TAT1 derivatives competed with selected C-terminal tails of Rpt (Regulatory Particle ATPases) subunits for binding to specific α face pockets. The scores presented in radar plots were calculated as ((relative activation by the [x] and Rpt tail)-(theoretical sum of activation by [x] and Rpt tail))/(theoretical sum of activation by [x] and Rpt tail), where [x] represent any TAT peptide. […] The positive scores for combinations of selected compounds with Rpt5 or Rpt6 tails indicated a presumed synergy in activation of the core. Average scores derived from three to six experiments are presented. The competition effects were statistically significant (at least p < 0.05) for Rpt3 peptide and (1) and (8), as well as for Rpt2 peptide and (6).
Human housekeeping core (20S) proteasome purified from erythrocytes was purchased from Boston Biochem, Inc. (Cambridge, MA) or from Enzo Life Sciences, Inc. (Farmingdale, NY). Multiple batches of the proteasomes were used and performed reproducibly. The stock proteasome was diluted to 0.2 mg/mL working solution in “dilution buffer” (50 mM Tris/HCl, pH 8, 20% glycerol). The following model peptide substrates, all releasing fluorescent 7-amino-4-methylcoumarin (AMC) reporter group after cleavage, were used: succinyl-LeuLeuValTyr-AMC (for the ChT-L peptidase; SucLLVY-AMC; Bachem Bioscience Inc., Philadelphia, PA), butoxycarbonyl-LeuArgArg-AMC (T-L; Bachem Bioscience Inc., Philadelphia, PA) and carbobenzoxy- LeuLeuGlu-AMC (PGPH; Enzo Life Sciences Inc., Farmingdale, NY). The substrates were used at concentration of 50 μM (ChT-L) or 100 μM (T-L, PGPH). Free AMC (Sigma-Aldrich, St. Louis, MO) was used as the standard. The C-terminal peptides derived from Rpt2, Rpt3, Rpt5 and Rpt6 were synthesized (standard solid-phase peptide chemistry) and purified to at least 98% purity by GenScript (Piscataway, NJ). The TAT peptides, Rpt peptides (except Rpt6) and the peptide substrates were dissolved in anhydrous dimethylsulfoxide (DMSO; Sigma-Aldrich, St. Louis, MO) and such stock solutions were stored at −20 °C. The total concentration of DMSO in final reaction mixtures never exceeded 3% (vol/vol). The Trp (tryptophan) -containing Rpt6 peptide was dissolved in ultrapure water and stored at −20 °C, protected from light. […]

[2] = test system: proteasome ChT-L activity in SK-N-SH (ATCC HTB-11) cell lysates; assay: ChT-L proteasome activity in lysates of treated SK-N-SH cells; type: cell-based, human; conditions: SK-N-SH cells; for Proteasome ChT-L activity in lysates of treated cells versus control lysates (in words): 1 µM peptide, 24 h, 1 μg lysate, 50 μM Suc-LLVY-AMC, n = 3–4
Procedure: […] The content of live cells was determined by the Trypan Blue-exclusion assay. The cells were harvested, washed twice in PBS, resuspended in dilution buffer (see above) and stored in −80 °C. To prepare lysates the thawed preparations were vortexed with glass beads and centrifuged for 5 min 5000× g (4 °C). The supernatant was centrifuged for 20 min 14,000× g (4 °C). The resulting supernatant—“crude lysate” was diluted to 1 mg/mL of total protein with dilution buffer. 1 μg of lysate per assay (reaction buffer: 50 mM Tris/HCl pH 8, 0.1 mM MgCl2, 0.2 mM ATP, 0.1 mM dithiothreitol, 50 μM Suc-LLVY-AMC) was used for determination of ChT-L activity in a 96-well format, as above.

[3] = test system: animal models of Alzheimer's disease; conditions: ref 15 (Chocron et al.); cited from earlier work
From the text: In the light of significant proteasome-enhancing effects of TAT peptides observed both in cellulo (Figure 5 and [15]) and in vivo [15], there is a crucial question of how they influence proteolytic activity in the most widespread form of the proteasome, the 26S holoenzyme. The most-explored TAT compounds are proposed to dock in the α1/α2 pocket, which, alongside the α5/α6 pocket, is permanently occupied in all conformational forms of the 26S assembly. Therefore, activation of the core already decorated with two 19S modules seems excluded. Still, in our in vitro experiments, a signif ...

SMILES | Competition with Rpt tail peptides (in words, from radar plot scores) [1] | Enhanced (synergistic) activation with Rpt tail peptides (in words) [1] | Proteasome ChT-L activity in lysates of treated cells versus control lysates (in words) [2] | Dose dependent proteasome activation, 4 h versus 24 h exposure (in words) ([2]; 0.5 or 1.0 µM, 4 or 24 h) | Proteins with increased turnover on treatment [3]
N=C(N)NCCC[C@H](NC(=O)CN)C(=O)N[C@@H](CCCCN)C(=O)N[C@@H](CCCCN)C(=O)N[C@@H](CCCNC(=N)N)C(=O)N[C@@H](CCCNC(=N)N)C(=O)N[C@@H](CCC(N)=O)C(=O)N1Cc2ccccc2C[C@H]1C(=O)N1[C@@H](C(=O)N[C@@H](CCCNC(=N)N)C(=O)N2CCC[C@H]2C(=O)N[C@@H](CO)C(=O)O)C[C@H]2CCCC[C@H]21 [(5)] | competed fairly specifically with Rpt3 tail | enhanced activation in the presence of one of Rpt tails, namely Rpt5 or Rpt6 | significantly higher than activity in control lysates | substantially stronger after 4 h exposure than after 24 h | APP and β secretase
NCCCC[C@H](NC(=O)[C@H](CCCCN)NC(=O)[C@H](CCCCN)NC(=O)c1cc(NC(=O)[C@H](CCCCN)NC(=O)[C@H](CCCCN)NC(=O)[C@@H](N)CCCCN)cc(NC(=O)[C@H](CCCCN)NC(=O)[C@H](CCCCN)NC(=O)[C@@H](N)CCCCN)c1)C(=O)O [(8)] | added a weakly negative score for the Rpt2 tail to the presumed major competitor Rpt3 | enhanced activation in the presence of one of Rpt tails, namely Rpt5 or Rpt6 | significantly higher than activity in control lysates | – | APP and β secretase
